# Test results published in US8394832B2, “Methods and compositions using immunomodulatory compounds for the treatment of immunodeficiency disorders” (Celgene Corporation, priority 2004, dated 2013).
# Assays:
# [1] = test system: CD69; assay: FACS analysis of CD69 expression in CD19+ B cells; format: cell-based, human
# Description: (§1) Human buffy coat (50 ml) was diluted with 50 ml sterile PBS (Ca^++, Mg^++ free), and mixed gently. A 25 ml aliquot of diluted buffy coat was transferred to each 50 ml centrifuge tube, and Histopaque-1077 (14 ml, #1077-1, Sigma) was gently layered into the bottom of the tube. The sample was centrifuged at 2,000 rpm for 30 min at room temperature. The interface containing mononuclear cells was transferred into 50 ml centrifuge tube, and washed once with PBS (1200 rpm, 5 min). The supernatant was discarded. Cell pellet was resuspended in Miltenyi buffer. Anti-CD19^+ microbeads were added to the suspension (10^7 cells in 80 μl of buffer, 20 μl antibody beads for 10^7 cells) and incubated for 15 min at 4° C. Cell pellet was washed once and resuspended in 1 ml Miltenyi buffer. The cell suspension was added to the magnetic column, washed with 10 ml Miltenyi buffer in the column. CD19^+ cells are released by 1 ml Miltenyi Buffer without magnetic field. CD19^+ cells were washed twice with RPMI complete medium. B cells (2×10^5) were plated in 96 well plate.
# B cells were treated with 1,3-dioxo-(2,6-dioxopiperidin-3-yl)-4-aminoisoindoline (FIG. 3A) or 1-oxo-(2,6-dioxopiperidin-3-yl)-4-aminoisoindoline (FIG. 3B) in presence of anti IgM, anti CD40 and IL-4 for 3 days. The suspension of B cells was washed by PBS once, and incubated with FITC conjugated anti human CD69 for 30 min in the dark. B cells were subject to FACS analysis using flow cytometer (EPICS XL-MCL, Beckman Coulter Company).
# To assess whether the effects of immunomodulatory compounds on IL-4 signaling impact on IL-4 mediated B cell activation, FACS array of immediate early expression marker CD69 expression at triplicates and six doses was examined using 1,3-dioxo-(2,6dioxopiperidin-3-yl)-4-aminoisoindoline or 1-oxo-(2,6-dioxopiperidin-3-yl)-4-aminoisoindoline. […] Thus, it is clear that immunomodulatory compounds have no impact on this process.
# [2] = test system: B cells; assay: B cell proliferation by BrdU ELISA; format: cell-based, human; conditions: 3 days (FIG. 7A)
# Description: as §1
# B cells were pretreated with 1,3-dioxo-(2,6-dioxopiperidin-3-yl)-4-aminoisoindoline or 1-oxo-(2,6-dioxopiperidin-3-yl)-4-aminoisoindoline at the concentrations of 60 μM, 6 μM, 0.6 μM, 0.06 μM, 0.006 μM, and 0.0006 μM for 30 min, then were added 2 μg/ml of anti-IgM, 2 μg/ml of anti CD40, 40 ng/ml IL-4, 100 ng/ml of recombinant BAFF, and/or 0.5 μg/ml of LPS. B cells were typically treated with the immunomodulatory compound alone or in presence of one or more of above stimuli for 3 days. Stimulated B cells with or without the treatment with immunomodulatory compound were used for cell proliferation assay and cytokines analysis.
# The crosslinking of B cell receptor antigen (“BCR”) is the primary signal for B cell activation in response to antigen, and is critical in initializing subsequent B cell activation, proliferation, and differentiation. To assess B cell activation, B cells were treated with 1,3-dioxo-(2,6-dioxopiperidin-3-yl)-4-aminoisoindoline or 1-oxo-(2,6-dioxopiperidin-3-yl)-4-aminoisoindoline in presence of stimuli for 3 days. 25 μl BrdU was added to 250 μl cell culture 24 hours before harvesting cells. B cells were dried at 60° C. after removal of labeling supernatant. 100 μl FixDenat solution was added to fix cells for 30 min at room temperature. FixDenat solution was removed by tapping plate, then 100 μl anti-BrdU-POD was added each well for 90 min, at room temperature, and the plate was washed three 3 times. 100 μl of substrate was added to plate for 10 min, then 100 μl stop solution was added. Absorbance was measured by using an ELISA microplate reader (Molecular Devices) at OD 450 nm. […]
# [3] = test system: IgE synthesis; assay: IgE ELISA of human PBMC treated with anti CD40 and IL-4 for three weeks; format: cell-based; conditions: 504 h, human PBMCs in presence of CD40+IL-4 for three weeks (FIGS. 11A and B), read-out: IC50 of inhibition of IgE synthesis
# Description: Human PBMCs (1×10^6/ml) were treated with immunomodulatory compounds in presence of anti-CD40 (2 ug/ml) and IL-4 (40 ng/ml) for three weeks. Fifty microliter of supernatant was used for IgE ELISA, following the manufacturer's instruction. The absorbance was read by ELISA reader at OD=450 nm.
# IL-4 is a unique signal for B cells to produce IgE during the immunoglobulin class switch. To assess whether immunomodulatory compounds can regulated IgE synthesis, 1,3-dioxo-(2,6-dioxopiperidin-3-yl)-4-aminoisoindoline or 1-oxo-(2,6-dioxopiperidin-3-yl)-4-aminoisoindoline was incubated with human PBMCs in presence of CD40+IL-4 for three weeks. […] (FIGS. 11A and B).
# Treatment of PBMC: 200 μl of 1×10^6/ml human PBMC were plated in 96 well plate, and the cells were pretreated with IMiDs at indicated concentrations (60, 6, 0.6, 0.06, 0.006, 0.0006 uM) for 30 minutes. Anti CD40 (#AHS4002, Biosource, 2 μg/ml) and IL-4 (#200-04, Pepro Tech, 40 ng/ml) were added to each well. Human PBMC in presence of IMiDs, anti CD40 and IL-4 were incubated for three weeks. Fifty microliters of supernatant was subjected to IgE ELISA.
# IgE ELISA: The IgE ELISA Quantitation Kit was purchased from Bethyl Laboratories, Inc. (#E80-108). […] The ELISA plate was read at OD=450 nm in ELISA plate reader.
# [4] = test system: TLR 9; assay: TLR 9 expression by FACS array in B cells; format: cell-based, human; conditions: 0.0006-60 μM, in combination with other stimuli, particularly IgM, 3 days (FIGS. 8A-8D)
# Description: as §1
# B cells were plated in 96 well plate and treated with 1,3-dioxo-(2,6-dioxopiperidin-3-yl)-4-aminoisoindoline at concentrations of 60 μM, 6 μM, 0.6 μM, 0.06 μM, 0.006 μM and 0.0006 μM in presence of stimuli for 3 days. […] B cells were resuspended in 150 μl PBS containing 1% BSA and read in FACS array instrument (BD Bioscience).
compound,measurement,setting,value
"Nc1cccc2c1C(=O)N(C1CCC(=O)NC1=O)C2=O (stereo not drawn) [1,3-dioxo-(2,6-dioxopiperidin-3-yl)-4-aminoisoindoline]",CD69 expression,"[1]; CD19+ B cells treated with anti human IgM, anti human CD40 and IL-4, 3 days (FIGS. 3A, 3B)",dose-dependently enhanced
same,CD69 expression,"[1]; IL-4 stimulated CD19+ B cells, triplicates, six doses (FIGS. 10A and B)",neither immunomodulatory compound inhibited
same,B cell proliferation,[2]; combined with IgM (anti-IgM),enhance
same,effect on B cell activation/proliferation,[2]; compound alone,minimal effect
same,IC50,[3],100 to 300 nM
same,TLR 9 expression,[4],increase
